Laboratory results as given in patent US8057829B2, “Methods for repelling insects using sesquiterpene hydrocarbons and their derivatives” (Sterling International Inc., priority 2008, dated 2011).

Assays:
[1] = tested on: female antennae of sand fly Phlebotomus papatasi and mosquitoes Aedes aegypti, Anopheles gambiae, Anopheles stephensi; test: GC-EAD responses of sand fly and three mosquitoes to synthetic mixtures; conditions: about 100 ng of each compound, on one or more of the sand fly or the mosquitoes, FIGS. 9 and 10
How it was run: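 Female antennae recorded by GC-EAD (split with FID) against synthetic mixtures with about 100 ng of each compound, 1-octen-3-ol as positive control; polar Innowax column, 50° C 2 min then 10° C/min to 240° C. Effluent in humidified air at 0.5 liter/min over severed-head preparation with Ringer-filled electrodes.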

[2] = tested on: Ae. aegypti and An. stephensi; test: K&D module bioassay, statements pooled for both mosquito species; assay type: in vivo, Aedes aegypti; Anopheles stephensi; conditions: DEET at 10 μg/cm^2, oxide and ketone at similar or lower dosages as DEET, oils at about 10 mg/d release
Protocol: (§1) The bioassays were conducted with a six-cell in vitro K&D module system, as disclosed in Klun and Debboun, J. Med. Entomol. 37:177-181 (2000), loaded with an “artificial blood” (CPDA+ATP) solution.
Clove essential oil, patchouli oil, and EAD-active potential repellents, β-caryophyllene, isocaryophyllene, (+)-longifolene, and their 1:1:1 mixture, plus α-guaiene, caryophyllene oxide, and a β-caryophyllene ketone, were tested using the six-cell in vitro K&D module system (Klun and Debboun, J. Med. Entomol. 37:177-181 (2000)) loaded with an “artificial blood” (CPDA+ATP) solution on both Ae. aegypti and An. stephensi in a dose-response fashion. The K&D in vitro assay system has three components: (1) a Plexiglas™ 29.7 cm.×7.1 cm K&D module composed of six adjacent cells, each designed to hold mosquitoes and each having a rectangular 3×4 cm floor hole that is opened and closed by a sliding door; (2) a Plexiglas™ six-well 29.7 cm×7.1 cm water water-bath warmed (38° C.) reservoir with six 3×4 cm wells designed to match the sliding-door openings of the K&D module base and to contain 6 mL warmed “artificial blood” wells covered with a collagen membrane; and (3) a 29.7 cm×7.1 cm'0.4 cm Teflon® separator having six rectangular openings like the K&D module. The K&D module was connected to a constant temperature water circulator at 38° C. The cells were covered with an Edicol collagen membrane strip. Nylon organdy strips with ink cell patterns were numbered and randomly treated with five dilutions of the tested chemical in ethanol (ethanol alone as blank control), plus DEET (ca. 10 μg/cm^2) as a positive control. This treated nylon organdy strip was placed on top of the collagen membrane. The upper section of the K & D module with the six cells each containing 5 mosquitoes (5-10 d old, starved for 24 hr before testing) was placed on top of the nylon strip. […] The experiments were allowed to run for 3 minutes, and the number of mosquitoes feeding (biting) in each cell was recorded. […]

[3] = tested on: male false stable fly Muscina stabulans antenna and female mosquito Aedes (Ochlerotatus) increpitus Dyar antenna; test: GC-EAD responses of false stable fly and Aedes increpitus to a synthetic mixture; conditions: about 100 ng of each compound, FIG. 5
Protocol: The GC-EAD responses of the male false stable fly Muscina stabulans antenna and the female mosquito Aedes (Ochlerotatus) increpitus Dyar antenna were tested on a synthetic mixture of linalool and two representative sesquiterpene hydrocarbons, β-caryophyllene and α-humulene, and one sesquiterpene oxide, β-caryophyllene oxide, with about 100 ng of each compound in the mixture.
The following procedures were employed to test the EAD response of an insect antenna to a repellent compound. The GC-EAD technique provides an efficient tool for screening behaviorally active repellents. Several synthetic mixtures of potential insect repellent candidates, mostly sesquiterpene hydrocarbons and derivatives, were analyzed in splitless mode using a Varian CP-3800 GC equipped with a polar column (Innowax; 1.0 μm film thickness, 30 m×0.53 mm ID; J & W Scientific), and a 1:1 effluent splitter that allowed simultaneous flame ionization detection (FID) and EAD of the separated volatile compounds. Helium was used as the carrier gas, and the injector temperature was 220° C. The column temperature was 50° C. for 2 min, rising to 240° C. at 10° C./min, then held for 10 min. The outlet for the EAD was held in a humidified air stream flowing at 0.5 liter/min. over an antennal preparation. A glass capillary indifferent electrode filled with Beadle-Ephrussi Ringer, and grounded via a silver wire, was inserted into the severed insect's head with the antennae. A similar recording electrode connected to a high-impedance DC amplifier with automatic baseline drift compensation was placed in contact with the distal end of one antenna (Zhang et al., Chemoecology, 10:69-80 (2000)). The antennal signals were stored and analyzed on a PC equipped with a serial IDAC interface box and the program EAD ver. 2.5 (Syntech, Hilversum, The Netherlands). The compound 1-octen-3-ol (known attractant for many flies and mosquitoes) was included in most of the synthetic mixtures, as a positive control. The results of the experiments are shown in FIGS. 1-10 and described above.

Aedes aegypti [4] = test: Y-tube olfactometer behavioral bioassay (spatial repellency); assay type: in vivo; conditions: for Number of mosquitoes in each arm: Blank / Number of mosquitoes in each arm: Bottom / Number of mosquitoes in each arm: Repellent: Aedes aegypti females, release rate per chemical (1-60 mg/day), 10 min; for Number of mosquitoes in each arm: Repellent: two replicates pooled; for SAI (Spatial Activity Index): Aedes aegypti, (Nc − Nt)/(Nc + Nt), −1 to 1, zero indicating no response
Protocol: (§2) Aegypti and An. stephensi, and one species of sand fly, P. papatasi. Both the mosquitoes and the sand flies used in the study were from colonies maintained at the Walter Reed Army Institute of Research, Department of Entomology, Silver Spring, Md. This Y-tube bioassay system, equipped with CO2-enriched air (ca. 1 l/min) as an attractant, was made from three clear acrylic tubes (4″ diameter; 12″ length) with symmetrical 120° angles among the three tube arms; and a screen butterfly valve on the top part of the bottom releasing tube. These spatial repellency tests were carried out during 8:00 am-12:00 pm (photophase) time period for Ae. aegypti and 1:00-5:00 pm (shifted scotophase) time period for the species of night-flying mosquitoes and sand fly in a temperature and humidity controlled testing room (23-25° C. and 20-40% RH). Female mosquitoes or sand flies were stored at ˜25-26° C., 50-89% RH, 12:12 hr. (L/D), fed with 10% sucrose solution before testing. The candidate chemical (individual or mixture) dispenser and a blank control were placed in the upper left or right arm of the Y-tube before releasing 25-40, 6 to 10 day-old female mosquitoes (or 3 to 10 day-old sand flies) into the bottom tube via a small hole. After a 30-60 sec acclimation period, the butterfly screen valve (door) on the top of the bottom tube was opened. After 10 min., the valve was closed and the numbers of mosquitoes or sand flies in each arm (including the bottom tube) were counted. In order to minimize the position effect, the same experiment was repeated once with the treatment and blank control arms shifted using a new (clean) Y-tube olfactometer and a new batch of mosquitoes/sand flies. Data from these two replicates were pooled for χ2 goodness of fit test (df=1) between the treatment and blank control.

Anopheles stephensi [5] = test: as above; assay type: in vivo; conditions: for Number of mosquitoes in each arm: Repellent / Number of mosquitoes in each arm: Blank / Number of mosquitoes in each arm: Bottom: Anopheles stephensi females, 10 min; for Number of mosquitoes in each arm: Repellent: release rate per chemical (1-60 mg/day; β-Caryophyllene 10 mg/day); for Number of mosquitoes in each arm: Blank / Number of mosquitoes in each arm: Bottom: release rate per chemical (β-Caryophyllene 10 mg/day); for SAI (Spatial Activity Index): Anopheles stephensi, β-Caryophyllene 10 mg/day
Protocol: as §2

Phlebotomus papatasi = test: as above; assay type: in vivo; conditions: for SAI (Spatial Activity Index): Phlebotomus papatasi; for Number of mosquitoes in each arm: Repellent: Phlebotomus papatasi (sand fly) females, release rate per chemical (1-35 mg/day); for Number of mosquitoes in each arm: Repellent / Number of mosquitoes in each arm: Blank / Number of mosquitoes in each arm: Bottom: 10 min; for Number of mosquitoes in each arm: Blank / Number of mosquitoes in each arm: Bottom: Phlebotomus papatasi females, release rate per chemical
Protocol: as §2

Aedes aegypti [6] = test: K&D module behavioral bioassay (topical repellency, biting); assay type: in vivo
Protocol: as §1
(§3) Clove essential oil, patchouli oil, and EAD-active potential repellents, β-caryophyllene, isocaryophyllene, (+)-longifolene, and their 1:1:1 mixture, plus α-guaiene, caryophyllene oxide, and a β-caryophyllene ketone, were tested using the six-cell in vitro K&D module system (Klun and Debboun, J. Med. Entomol. 37:177-181 (2000)) loaded with an “artificial blood” (CPDA+ATP) solution on both Ae. aegypti and An. stephensi in a dose-response fashion. The K&D in vitro assay system has three components: (1) a Plexiglas™ 29.7 cm.×7.1 cm K&D module composed of six adjacent cells, each designed to hold mosquitoes and each having a rectangular 3×4 cm floor hole that is opened and closed by a sliding door; (2) a Plexiglas™ six-well 29.7 cm×7.1 cm water water-bath warmed (38° C.) reservoir with six 3×4 cm wells designed to match the sliding-door openings of the K&D module base and to contain 6 mL warmed “artificial blood” wells covered with a collagen membrane; and (3) a 29.7 cm×7.1 cm'0.4 cm Teflon® separator having six rectangular openings like the K&D module. The K&D module was connected to a constant temperature water circulator at 38° C. The cells were covered with an Edicol collagen membrane strip. Nylon organdy strips with ink cell patterns were numbered and randomly treated with […] of the tested chemical in ethanol (ethanol alone as blank control), plus DEET (ca. 10 μg/cm^2) as a positive control. This treated nylon organdy strip was placed on top of the collagen membrane. The upper section of the K & D module with the six cells each containing 5 mosquitoes (5-10 d old, starved for 24 hr before testing) was placed on top of the nylon strip. The doors to the cells were slid open so the mosquitoes could be free to feed on the “artificial blood” via the collagen membrane if they were hungry. The experiments were allowed to run for 3 minutes, and the number of mosquitoes feeding (biting) in each cell was recorded. After each experiment, the nylon and collagen strips were removed. The CPDA+ATP solution was removed and allowed to dry prior to starting the next experiment. The experiments on each chemical and each mosquito species were run three times before the bottom section with circulated water was cleaned prior to use again.

Anopheles stephensi [7] = test: as above; assay type: in vivo
Protocol: as §1, §3

[8] = 10 μg/cm^2, DEET values are the positive control run with the chemical

CCN(CC)C(=O)c1cccc(C)c1 [DEET, N,N-diethyl-m-toluamide, reference compound]
GC-EAD antennal activity [1]: does not appear to have elicited antennal activity
topical repellency / feeding deterrence, in words [2]: significantly inhibited/blocked the feeding (biting) activity

C=C1CC[C@H]2O[C@]2(C)CC[C@@H]2[C@@H]1CC2(C)C [β-Caryophyllene Oxide, β-Caryophyllene oxide]
GC-EAD antennal activity [3]: active on at least one of the insects tested
GC-EAD antennal activity [1]: antennally active
Number of mosquitoes in each arm: Blank (Aedes aegypti [4]): 38
Number of mosquitoes in each arm: Bottom (Aedes aegypti [4]): 26
Number of mosquitoes in each arm: Repellent (Aedes aegypti [4]): 15
SAI (Spatial Activity Index) (Aedes aegypti [4]): 0.43
Number of mosquitoes in each arm: Repellent (Anopheles stephensi [5]): 15
Number of mosquitoes in each arm: Blank (Anopheles stephensi [5]): 24
Number of mosquitoes in each arm: Bottom (Anopheles stephensi [5]): 23
SAI (Spatial Activity Index) (Anopheles stephensi [5]): 0.23
SAI (Spatial Activity Index) (Phlebotomus papatasi): 0.91
Number of mosquitoes in each arm: Repellent (Phlebotomus papatasi): 4
Number of mosquitoes in each arm: Blank (Phlebotomus papatasi): 83
Number of mosquitoes in each arm: Bottom (Phlebotomus papatasi): 5
% of biting (±SE) (N = 3) (Aedes aegypti [6]; 1 μg/cm^2, 3 minutes): 27 ± 7b %
% of biting (±SE) (N = 3) (Aedes aegypti [6]; 5 μg/cm^2): 27 ± 7b %
% of biting (±SE) (N = 3) (Aedes aegypti [6]; [8]): 0 ± 0a %
% of biting (±SE) (N = 3) (Aedes aegypti [6]; 50 μg/cm^2): 0 ± 0a %
% of biting (±SE) (N = 3) (Anopheles stephensi [7]; 1 μg/cm^2, 3 minutes): 27 ± 13abc %
% of biting (±SE) (N = 3) (Anopheles stephensi [7]; 5 μg/cm^2): 47 ± 7bc %
% of biting (±SE) (N = 3) (Anopheles stephensi [7]; [8]): 20 ± 12ab %
% of biting (±SE) (N = 3) (Anopheles stephensi [7]; 50 μg/cm^2): 0 ± 0a %
topical repellency / feeding deterrence, in words [2]: even stronger topical repellency

C/C1=C\CCC(=O)[C@H]2CC(C)(C)[C@@H]2CC1 [β-Caryophyllene Ketone, β-caryophyllene ketone]
Number of mosquitoes in each arm: Blank (Aedes aegypti [4]): 37
Number of mosquitoes in each arm: Bottom (Aedes aegypti [4]): 20
Number of mosquitoes in each arm: Repellent (Aedes aegypti [4]): 28
SAI (Spatial Activity Index) (Aedes aegypti [4]): 0.14
Number of mosquitoes in each arm: Repellent (Anopheles stephensi [5]): 10
Number of mosquitoes in each arm: Blank (Anopheles stephensi [5]): 18
Number of mosquitoes in each arm: Bottom (Anopheles stephensi [5]): 32
SAI (Spatial Activity Index) (Anopheles stephensi [5]): 0.29
SAI (Spatial Activity Index) (Phlebotomus papatasi): 0.18
Number of mosquitoes in each arm: Repellent (Phlebotomus papatasi): 20
Number of mosquitoes in each arm: Blank (Phlebotomus papatasi): 29
Number of mosquitoes in each arm: Bottom (Phlebotomus papatasi): 23
% of biting (±SE) (N = 3) (Aedes aegypti [6]; 1 μg/cm^2, 3 minutes): 20 ± 0bc %
% of biting (±SE) (N = 3) (Aedes aegypti [6]; 5 μg/cm^2): 13 ± 7ab %
% of biting (±SE) (N = 3) (Aedes aegypti [6]; [8]): 7 ± 7ab %
% of biting (±SE) (N = 3) (Aedes aegypti [6]; 50 μg/cm^2): 0 ± 0a %
% of biting (±SE) (N = 3) (Anopheles stephensi [7]; 1 μg/cm^2, 3 minutes): 47 ± 7cd %
% of biting (±SE) (N = 3) (Anopheles stephensi [7]; 5 μg/cm^2): 33 ± 7bc %
% of biting (±SE) (N = 3) (Anopheles stephensi [7]; [8]): 20 ± 12ab %
% of biting (±SE) (N = 3) (Anopheles stephensi [7]; 50 μg/cm^2): 0 ± 0a %
topical repellency / feeding deterrence, in words [2]: even stronger topical repellency
